Laboratory results reported in ChEMBL document CHEMBL4382287, “Design, Synthesis, and Biological Evaluation of 6-Benzoxazole Benzimidazole Derivatives with Antihypertension Activities” (ACS Med Chem Lett, 2019).
pIC50, pKi: −log10 of the molar value. Activity calls are given as the source filed them. The calls are words filed in the database; no cut-off is given here.

Columns and labels:
[1] = Toxicity in rat spontaneous hypertensive model assessed as effect on heart rate at 5 to 10 mg/kg, po qd measured up to 24 hrs; format: organism-based; conditions: in vivo
Rattus norvegicus [2] = experiment: Antihypertensive activity in rat spontaneous hypertensive model assessed as decrease in maximal mean blood pressure at 5 to 10 mg/kg, po qd measured up to 24 hrs; format: functional, organism-based
Rattus norvegicus [3] = experiment: Antihypertensive activity in rat spontaneous hypertensive model assessed as decrease in maximal mean blood pressure at 10 mg/kg, po qd measured up to 24 hrs; format: functional
[4] = Displacement of [125I]-angiotensin-2 from AT1 receptor in Sprague-Dawley rat vascular smooth muscle cells after 150 mins by gamma counting method

Row | SMILES | pIC50 [4] | Activity [1] | Activity (Rattus norvegicus [2]) | Activity (Rattus norvegicus [3]) | pKi [4]
1 | CCCCc1nc2c(C)cc(-c3nc4cccc(C)c4o3)cc2n1Cc1cccc2c1ccn2-c1ccccc1C(=O)O | 7.98 |  | Active |  | 8.12
2 | CCc1nc2c(C)cc(-c3nc4c(C)cccc4o3)cc2n1Cc1cccc2c1ccn2-c1ccccc1C(=O)O | 7.99 |  | Active |  | 8.12
3 | CCc1nc2c(C)cc(-c3nc4cccc(C)c4o3)cc2n1Cc1cccc2c1ccn2-c1ccccc1C(=O)O | 7.92 |  | Active |  | 8.06
4 | CCCCc1nc(Cl)c(CO)n1Cc1ccc(-c2ccccc2-c2nnn[nH]2)cc1 [LOSARTAN] | 7.84 |  |  | 42.5 mmHg | 7.98
5 | CCc1nc2c(C)cc(-c3nc4cccc(C)c4o3)cc2n1Cc1ccc2c(ccn2-c2ccccc2C(=O)O)c1 | 7.87 |  | Active |  | 8.01
6 | CCCCc1nc2c(C)cc(-c3nc4c(C)cccc4o3)cc2n1Cc1ccc2c(ccn2-c2ccccc2C(=O)O)c1 | 7.97 |  | Active |  | 8.11
7 | CCc1nc2c(C)cc(-c3nc4c(C)cccc4o3)cc2n1Cc1ccc2c(ccn2-c2ccccc2C(=O)O)c1 | 7.92 |  | Active |  | 8.06

Stronger by pIC50 [4], values ahead:

Row | pIC50 [4] | SMILES | Activity [1] | Activity (Rattus norvegicus [2]) | Activity (Rattus norvegicus [3]) | pKi [4]
8 | 8.40 | CCCc1nc2c(C)cc(-c3nc4c(C)cccc4o3)cc2n1Cc1cccc2c1ccn2-c1ccccc1C(=O)O | Non-Toxic | Active | 54.57 mmHg | 8.54
9 | 8.28 | CCCc1nc2c(C)cc(-c3nc4cccc(C)c4o3)cc2n1Cc1cccc2c1ccn2-c1ccccc1C(=O)O |  | Active |  | 8.42
10 | 8.36 | CCCc1nc2c(C)cc(-c3nc4c(C)cccc4o3)cc2n1Cc1ccc2c(ccn2-c2ccccc2C(=O)O)c1 | Non-Toxic | Active | 41.91 mmHg | 8.49
11 | 8.00 | CCCCc1nc2c(C)cc(-c3nc4c(C)cccc4o3)cc2n1Cc1cccc2c1ccn2-c1ccccc1C(=O)O |  | Active |  | 8.14
12 | 8.25 | CCCc1nc2c(C)cc(-c3nc4cccc(C)c4o3)cc2n1Cc1ccc2c(ccn2-c2ccccc2C(=O)O)c1 |  | Active |  | 8.40
13 | 8.01 | CCCCc1nc2c(C)cc(-c3nc4cccc(C)c4o3)cc2n1Cc1ccc2c(ccn2-c2ccccc2C(=O)O)c1 |  | Active |  | 8.15
